Patent US12161634B2, “Pyruvate kinase R (PKR) activating compositions” (Novo Nordisk Health Care AG, priority 2020, dated 2024)

Columns and labels:
[1] = Polymorph screening (solid form by XRPD); assay type: physicochemical
Experimental: Polymorph screening experiments were performed using a series of crystallization and solid transition methods.
Solid vapor diffusion experiments were conducted using 13 different solvents. Approximately 15 mg of Compound 1 (Type A) was weighed into a 4-mL vial, which was placed into a 20-mL vial with 3 mL of volatile solvent. The 20-mL vial was sealed with a cap and kept at RT for 7 days, allowing solvent vapor to interact with the sample.
Slurry experiments were conducted […] in different solvent systems. About 15 mg of Compound 1 (Type A) was suspended in 0.3 mL of solvent in a 2-mL glass vial. After the suspension was stirred magnetically for 7 days at 4° C., RT or 50° C., the remaining solids were isolated for XRPD analysis (Method A).
Approximately 15 mg of Compound 1 (Type A) was dissolved in an appropriate solvent to obtain a clear solution in a 4-mL vial. This solution was then placed into a 20-mL vial with 3 mL of anti-solvent. The 20-mL vial was sealed with a cap and kept at RT, allowing sufficient time for organic vapor to interact with the solution. After 7 days, solids were isolated for XRPD analysis (Method A).
(§1) Compound 1 (Type A) was weighed into a 3 mL glass vial with the addition of the corresponding solvent or solvent mixture. After being vortexed and ultrasonically shaken, the suspension was filtered, and the filtrate was transferred to a clean 4 mL shell vial. A small amount of Compound 1 (Type A) was added as a seed crystal. Subsequently, the shell vial was sealed with a polyethylene plug with one pinhole and enclosed in a 20 mL glass vial containing 3 mL of the anti-solvent at room temperature for liquid vapor diffusion. The solid forms resulting from the experiments were characterized by XRPD analysis (Method C).
Slow evaporation experiments were performed under 4 conditions. Briefly, about 15 mg of Compound 1 (Type A) was mixed with 1.0-2.5 mL of solvent in a 4-mL glass vial. If the solids were not dissolved completely, suspensions were filtered using a PTFE membrane (pore size of 0.2 μm) and the filtrates were used for the follow-up steps. The visually clear solutions were subjected to evaporation at RT with vials sealed by Parafilm® (3-5 pinholes).
as §1, with “placed” for “enclosed”, “fume hood” for “20 mL glass vial containing 3 mL of the anti-solvent”, “slow evaporation.” for “liquid vapor diffusion.”
A total of 8 anti-solvent addition experiments were carried out. About 15 mg of Compound 1 (Type A) was dissolved in 0.2-4.0 mL of solvent to obtain a clear solution. The solution was magnetically stirred followed by addition of 0.2 mL anti-solvent per step until precipitate appeared or the total amount of anti-solvent reached 15.0 mL. The obtained precipitate was isolated for XRPD analysis (Method A).
A total of 2 reverse anti-solvent addition experiments were carried out. About 15 mg of Compound 1 (type A) was dissolved in 0.2 mL solvent to obtain a clear solution. The solution was added into 2 mL anti-solvent. The obtained precipitate was isolated for XRPD analysis (Method A). Results summarized in Table 16 indicated Type A or a mixture of Type A and amorphous material were generated.
Compound 1 (Type A) was weighed into a 3 mL glass vial with the addition of the corresponding solvent or solvent mixture. After being vortexed and ultrasonically shaken to accelerate dissolution, the suspension was placed in a biochemical incubator and equilibrated at 50° C. for 30 minutes. […]

[2] = Dynamic vapor sorption (DVS); assay type: physicochemical
Experimental: Dynamic Vapor Sorption (DVS) was measured with a Surface Measurement System (SMS) DVS Intrinsic.

## O=C([C@H](CO)c1ccccc1)N1CC2=C(C1)CN(S(=O)(=O)c1cnc3c(c1)OCCO3)C2 [Type A, (S)-1-(5-[2H,3H-[1,4]dioxino[2,3-b]pyridine-7-sulfonyl]-1H,2H,3H,4H,5H,6H-pyrrolo[3,4-c]pyrrol-2-yl)-3-hydroxy-2-phenylpropan-1-one]
[1]; liquid vapor diffusion RT 7 days, solvent 1,4-Dioxane, anti-solvent EtOAc
  Solid Form: Type A
[1]; liquid vapor diffusion RT 7 days, solvent 1,4-Dioxane, anti-solvent MTBE
  Solid Form: Type A
[1]; liquid vapor diffusion RT 7 days, solvent 1,4-Dioxane, anti-solvent MeOH
  Solid Form: Type B
[1]; liquid vapor diffusion RT 7 days, solvent 1,4-Dioxane, anti-solvent Toluene
  Solid Form: Type A
[1]; liquid vapor diffusion RT 7 days, solvent 1,4-Dioxane, anti-solvent n-Heptane
  Solid Form: Type F
[1]; liquid vapor diffusion RT 7 days, solvent Acetone, anti-solvent H2O
  Solid Form: Type B
[1]; liquid vapor diffusion RT 7 days, solvent Acetone, anti-solvent IPA
  Solid Form: Type A
[1]; liquid vapor diffusion RT 7 days, solvent Acetone, anti-solvent MIBK
  Solid Form: Type A
[1]; liquid vapor diffusion RT 7 days, solvent CHCl3, anti-solvent 2-MeTHF
  Solid Form: Type A
[1]; liquid vapor diffusion RT 7 days, solvent CHCl3, anti-solvent EtOH
  Solid Form: Type A
[1]; liquid vapor diffusion RT 7 days, solvent CHCl3, anti-solvent IPAc
  Solid Form: Type A
[1]; liquid vapor diffusion RT 7 days, solvent THF, anti-solvent EtOAc
  Solid Form: Type A
[1]; liquid vapor diffusion RT 7 days, solvent THF, anti-solvent MeOH
  Solid Form: Type A
[1]; liquid vapor diffusion, seeded, RT, 3.0 mg in 0.5 mL MeOH, anti-solvent MTBE
  Solid Form: Type B
[1]; liquid vapor diffusion, seeded, RT, 4.9 mg in 0.5 mL Acetone, anti-solvent MTBE
  Solid Form: Type A
[1]; liquid vapor diffusion, seeded, RT, 10.0 mg in 0.5 mL ACN, anti-solvent MTBE
  Solid Form: Type B
[1]; liquid vapor diffusion, seeded, RT, 10.1 mg in 0.5 mL ACN, anti-solvent H2O
  Solid Form: Type B
[1]; liquid vapor diffusion, seeded, RT, 10.4 mg in 0.5 mL THF, anti-solvent n-pentane
  Solid Form: Type D
[1]; liquid vapor diffusion, seeded, RT, 10.8 mg in 0.1 mL DMSO, anti-solvent IPA
  Solid Form: Type A
[1]; liquid vapor diffusion, seeded, RT, 10.9 mg in 0.1 mL DMF, anti-solvent IPAc
  Solid Form: Type I
[1]; liquid vapor diffusion, seeded, RT, 11.5 mg in 0.5 mL THF, anti-solvent MeOH
  Solid Form: Type D
[1]; liquid vapor diffusion, seeded, RT, 12.1 mg in 0.5 mL THF, anti-solvent EtOAc
  Solid Form: Type M
[1]; liquid vapor diffusion, seeded, RT, 17.6 mg in 0.5 mL 1,4-dioxane, anti-solvent n-heptane
  Solid Form: Type A
[1]; liquid vapor diffusion, seeded, RT, 30.8 mg in 0.2 mL NMP, anti-solvent MTBE
  Solid Form: Type J
[1]; liquid vapor diffusion, seeded, RT, 31.9 mg in 0.2 mL DMSO, anti-solvent H2O
  Solid Form: Type A
[1]; liquid vapor diffusion, seeded, RT, 32.1 mg in 0.2 mL DMF, anti-solvent Toluene
  Solid Form: Type H
[1]; liquid vapor diffusion, seeded, RT, 34.3 mg in 0.3 mL CHCl3, anti-solvent n-pentane
  Solid Form: Type A
[1]; slow cooling 50° C. to 5° C., 15.4 mg in 1.5 mL 2-MeTHF
  Solid Form: Type K
[1]; slow cooling 50° C. to 5° C., 15.7 mg in 1.5 mL EtOH
  Solid Form: Type A
[1]; slow cooling 50° C. to 5° C., 20.3 mg in 1.5 mL EtOAc
  Solid Form: Type B
[1]; slow cooling 50° C. to 5° C., 20.5 mg in 1.5 mL MeOH
  Solid Form: Type B
[1]; slow cooling 50° C. to 5° C., 39.7 mg in 1.0 mL THF/H2O (1:1 v/v), then kept at 5° C. for 22 days
  Solid Form: Type L
[1]; slow cooling 50° C. to 5° C., 40.3 mg in 0.8 mL ACN/H2O (2:1 v/v)
  Solid Form: Type B
[1]; slow cooling 50° C. to 5° C., 40.3 mg in 1.0 mL Acetone/n-heptane (3:1 v/v)
  Solid Form: Type A
[1]; slow cooling 50° C. to 5° C., 40.4 mg in 1.0 mL 1,4-dioxane/H2O (1:1 v/v)
  Solid Form: Type B
[1]; slow cooling 50° C. to 5° C., 40.6 mg in 1.0 mL Acetone/H2O (2:1 v/v)
  Solid Form: Type B
[1]; slow evaporation, seeded, RT, 3.0 mg in 1.0 mL MeOH
  Solid Form: Type B
[1]; slow evaporation, seeded, RT, 3.2 mg in 0.5 mL EtOAc/2-MeTHF (1:1 v/v)
  Solid Form: Type B
[1]; slow evaporation, seeded, RT, 3.2 mg in 1.0 mL EtOAc
  Solid Form: Type B
[1]; slow evaporation, seeded, RT, 4.5 mg in 0.5 mL Acetone/EtOH (1:1 v/v)
  Solid Form: Type A
[1]; slow evaporation, seeded, RT, 4.6 mg in 0.5 mL Acetone
  Solid Form: Type A
[1]; slow evaporation, seeded, RT, 4.7 mg in 0.5 mL Acetone/EtOAc (1:1 v/v)
  Solid Form: Type A
[1]; slow evaporation, seeded, RT, 5.0 mg in 0.5 mL ACN/MIBK (1:1 v/v)
  Solid Form: Type A
[1]; slow evaporation, seeded, RT, 5.2 mg in 0.5 mL MeOH/Acetone (1:1 v/v)
  Solid Form: Type B
[1]; slow evaporation, seeded, RT, 7.3 mg in 0.5 mL DCM/IPAc (1:1 v/v)
  Solid Form: Type A
[1]; slow evaporation, seeded, RT, 9.6 mg in 0.5 mL THF/H2O (5:1 v/v)
  Solid Form: Type B
[1]; slow evaporation, seeded, RT, 9.8 mg in 0.5 mL ACN/H2O (5:1 v/v)
  Solid Form: Type B
[1]; slow evaporation, seeded, RT, 10.0 mg in 0.5 mL ACN
  Solid Form: Type B
[1]; slow evaporation, seeded, RT, 10.1 mg in 0.5 mL THF
  Solid Form: Type D
[1]; slow evaporation, seeded, RT, 10.7 mg in 0.5 mL THF/EtOH (1:1 v/v)
  Solid Form: Type A
[1]; slow evaporation, seeded, RT, 10.8 mg in 0.5 mL DCM/n-heptane (1:1 v/v)
  Solid Form: Type A
[1]; slow evaporation, seeded, RT, 11.1 mg in 0.5 mL ACN/EtOAc (1:1 v/v)
  Solid Form: Type A
[1]; slow evaporation, seeded, RT, 13.0 mg in 0.5 mL Acetone/H2O (5:1 v/v)
  Solid Form: Type B
[1]; slow evaporation, seeded, RT, 13.8 mg in 0.5 mL ACN/EtOH (1:1 v/v)
  Solid Form: Type A
[1]; slow evaporation, seeded, RT, 14.4 mg in 0.5 mL ACN/2-MeTHF (1:1 v/v)
  Solid Form: Type A
[1]; slow evaporation, seeded, RT, 17.3 mg in 0.5 mL ACN/IPA (4:1 v/v)
  Solid Form: Type A
[1]; slow evaporation, seeded, RT, 22.7 mg in 0.5 mL CHCl3/IPA (1:1 v/v)
  Solid Form: Type A
[1]; slow evaporation, seeded, RT, 22.9 mg in 0.5 mL CHCl3/toluene (1:1 v/v)
  Solid Form: Type A
[1]; slow evaporation, seeded, RT, 27.7 mg in 0.5 mL ACN/n-heptane (10:1 v/v)
  Solid Form: Type B
[1]; slow evaporation, seeded, RT, 32.9 mg in 0.5 mL 1,4-dioxane/H2O (4:1 v/v)
  Solid Form: Gel
[1]; slurry of Type A 7 days, 1,4-Dioxane/MeOH (v/v, 1:1), 50° C.
  Solid Form: Type A
[1]; slurry of Type A 7 days, 1,4-Dioxane/Toluene (v/v, 1:1), 50° C.
  Solid Form: Type A
[1]; slurry of Type A 7 days, 1,4-Dioxane, 50° C.
  Solid Form: Type A
[1]; slurry of Type A 7 days, 1,4-Dioxane, RT
  Solid Form: Type C
[1]; slurry of Type A 7 days, 2-MeTHF, 50° C.
  Solid Form: Type A
[1]; slurry of Type A 7 days, ACN/IPA (v/v, 1:3), 50° C.
  Solid Form: Type A
[1]; slurry of Type A 7 days, ACN, 4° C.
  Solid Form: Type A
[1]; slurry of Type A 7 days, Acetone/H2O (v/v, 1:3), 50° C.
  Solid Form: Type B
[1]; slurry of Type A 7 days, Acetone/IPAc (v/v, 1:3), 50° C.
  Solid Form: Type A
[1]; slurry of Type A 7 days, Acetone, RT
  Solid Form: Type A
[1]; slurry of Type A 7 days, CHCl3/EtOAc (v/v, 1:3), 50° C.
  Solid Form: Type A
[1]; slurry of Type A 7 days, CHCl3/MeOH (v/v, 1:3), 50° C.
  Solid Form: Type A
[1]; slurry of Type A 7 days, CHCl3/Toluene (1/3), 4° C.
  Solid Form: Type B + Type A
[1]; slurry of Type A 7 days, DCM/EtOH (v/v, 1:3), 50° C.
  Solid Form: Type A
[1]; slurry of Type A 7 days, DCM/n-Heptane (1/3), 4° C.
  Solid Form: Type A
[1]; slurry of Type A 7 days, DMSO/H2O (1/9), RT
  Solid Form: Type B
[1]; slurry of Type A 7 days, EtOAc, 50° C.
  Solid Form: Type A
[1]; slurry of Type A 7 days, EtOH, 50° C.
  Solid Form: Type A
[1]; slurry of Type A 7 days, H2O, 50° C.
  Solid Form: Type B
[1]; slurry of Type A 7 days, IPA, 50° C.
  Solid Form: Type A
[1]; slurry of Type A 7 days, IPAc, 50° C.
  Solid Form: Type A
[1]; slurry of Type A 7 days, MIBK, 50° C.
  Solid Form: Type A
[1]; slurry of Type A 7 days, MTBE, 50° C.
  Solid Form: Type A
[1]; slurry of Type A 7 days, MeOH, 50° C.
  Solid Form: Type B
[1]; slurry of Type A 7 days, THF, 4° C.
  Solid Form: Type D
[1]; slurry of Type A 7 days, THF, 50° C.
  Solid Form: Type A
[1]; slurry of Type A 7 days, Toluene, 50° C.
  Solid Form: Type A
[1]; slurry of Type A 7 days, n-Heptane, 50° C.
  Solid Form: Type A
[2]; DVS at RT
  hygroscopicity: hygroscopic
[2]; DVS, RT
  water uptake from 40% RH to 80% RH: 1.0%
[2]; DVS, up to 40% RH (ambient condition), RT
  water uptake up to 40% RH: 3.4%
[2]; RT, determined by XRPD
  form change before and after DVS test: No form change
